For orientation: IC50 means the point on the concentration scale where inhibition reaches its midpoint.

The source of these data is patent US20160051529A1, “PPAR-SPARING THIAZOLIDINEDIONES AND COMBINATIONS FOR THE TREATMENT OF NEURODEGENERATIVE AND OTHER METABOLIC DISEASES” (METABOLIC SOLUTIONS DEVELOPMENT COMPANY LLC, priority 2012, published 2016).

The target in experiment [1] is T1, human PPARγ ligand binding domain (LBD) (Homo sapiens, UniProt P37231).
T1 construct: purchased Invitrogen #4894
T1 sequence (P37231 238-503 limits assumed): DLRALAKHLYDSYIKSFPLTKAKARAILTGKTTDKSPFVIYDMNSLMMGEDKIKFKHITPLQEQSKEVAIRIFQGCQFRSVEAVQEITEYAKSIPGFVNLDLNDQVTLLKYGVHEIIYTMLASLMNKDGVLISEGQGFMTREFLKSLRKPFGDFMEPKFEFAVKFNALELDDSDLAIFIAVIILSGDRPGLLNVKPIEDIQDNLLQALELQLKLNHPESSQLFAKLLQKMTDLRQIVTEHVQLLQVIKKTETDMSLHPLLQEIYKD
In words: TR-FRET PPARγ competitive binding assay (Invitrogen LanthaScreen). How it is done:
Whereas activation of the PPARγ receptor is generally believed to be a selection criteria to select for molecules that may have anti-diabetic and insulin sensitizing pharmacology, this invention finds that activation of this receptor should be a negative selection criterion. Molecules will be chosen from this chemical space because they have reduced, not just selective, activation of PPARγ. […] The assays are conducted by first evaluation of the direct interactions of the molecules with the ligand binding domain of PPARγ. This can be performed with a commercial interaction kit that measures the direct interaction by florescence using rosiglitazone as a positive control.
PPARγ binding is measured by a TR-FRET competitive binding assay using Invitrogen LanthaScreen™ TR-FRET PPARγ Competitive Binding Assay (Invitrogen #4894). This assay uses a terbium-labeled anti-GST antibody to label the GST tagged human PPARγ ligand binding domain (LBD). A fluorescent small molecule pan-PPAR ligand tracer binds to the LBD causing energy transfer from the antibody to the ligand resulting in a high TR-FRET ratio. Competition binding by PPARγ ligands displace the tracer from the LBD causing a lower FRET signal between the antibody and tracer. The TR-FRET ratio is determined by reading the fluorescence emission at 490 and 520 nm using a Synergy2 plate reader (BioTek). The ability of several exemplary compounds of the present invention to bind to PPARγ was also measured using a commercial binding assay (Invitrogen Corporation, Carlsbad, Calif.) that measures the test compounds ability to bind with PPAR-LBD/Fluormone PPAR Green complex. These assays were performed on three occasions with each assay using four separate wells (quadruplicate) at each concentration of tested compound. The data are mean and SEM of the values obtained from the three experiments. Rosiglitazone was used as the positive control in each experiment. Compounds were added at the concentrations shown, which ranged from 0.1-100 micromolar.
On the technique in general: Time-resolved FRET reads energy transfer from a long-lived donor to a nearby acceptor.

Experiment [2] can be described thus: Glucose, triglycerides and insulin, T/C normalized to vehicle. Conditions: normalized to vehicle activity. It is filed as in vivo.
Experiment [3] deals with PGC-1α. Kind of experiment: Expression of PGC-1α mRNA in precursor BAT cells with norepinephrine. It is filed as cell-based. The settings on record: 3 μM compound for seven days, then 1 μM norepinephrine for 2 hours, quantitative PCR. As to the method:
Another example of the ability of augmented signaling between cyclic nucleotides and compounds of Formula I is shown by the effect on expression of PGC-1α, a known regulator of mitochondrial biogenesis. Increased numbers of mitochondria are predictive of utility for the reduction of body weight.
Precursor BAT cells were isolated as described above and treated with or without 3 μM compounds: 1.] Compound A: 5-(4-(2-(5-ethylpyridin-2-yl)-2-oxoethoxy)benzyl)-1,3-thiazolidine-2,4-dione; 2.] Compound B: 5-(4-(2R)-2-(5-ethylpyridin-2-yl)-2-hydroxyethoxyy)benzyl)-1,3-thiazolidine-2,4-dione; or 3.] Compound C: 5-(4-(2-(3-methoxyphenyl)-2-oxoethoxy)benzyl)-1,3-thiazolidine-2,4-dione for seven days followed by treatment with 1 μM norepinephrine for 2 hours. Total RNA was isolated from the cells and the RNA message (mRNA) for PGC-1α was measured by quantitative polymerase chain reactions.

For experiment [4], the system named is 5XFAD mice. Kind of experiment: Plaque pathology in hippocampus of 5XFAD mice. It is filed as in vivo. The settings on record: chow delivering 390 mg/kg for 4 weeks. How it is done: 5XFAD mice harbor 5 familial mutations (3 in the amyloid precursor protein; 2 in presenilin 1) and develop robust plaque pathology as early as 6 weeks. These mice were treated beginning at 2 months of age for a period of 4 weeks with control chow or chow containing Compound A to deliver 390 mg/kg for 4 weeks.
Referring to FIG. 7, […] stained plaques were counted in the hippocampus of the 5XFAD mice. […] Note that the plaques having less than 100 micron size were excluded from the graph, and those amounted to about 70% of all the plaques in both Control and Compound A treated groups.

Structures are written as SMILES. Where only a bound is given, the exact number is not on record here.

For `CCOC(Cc1ccc(OCC(=O)c2ccc(CC)cn2)cc1)C(=O)O` (stereo not drawn) [Compound 1], the half-maximal inhibitory concentration (IC50) in experiment [1] came to 17.8 µM.
Still for that read-out and setting: the result for `COc1cccc(C(=O)COc2ccc(CC(=O)C(=O)O)cc2)c1` [Compound 10] reads 111 µM.
As for `CCO/C(=C\c1cccc(OCC(=O)c2cccc(OC)c2)c1)C(=O)O` [Compound 13], in experiment [1], the 50% inhibitory concentration (IC50) was 21.8 µM. In experiment [2] (no dose given), the “Insulin (T/C)” value amounted to 0.81 T/C and the “Triglycerides (mean T/C)” value is given as 0.86 T/C.
For the molecule `CCO/C(=C\c1ccc(OCC(=O)c2ccc(CC)cn2)cc1)C(=O)O` [Compound 14], the half-maximal inhibitory concentration (IC50) in experiment [1] was found to be 96.1 µM.
On the same count and under the same terms, the same measure for `COc1cccc(C(=O)COc2cccc(O[C@H](C)C(=O)O)c2)c1` [Compound 15]: 100 µM; for `CCO/C(=C\c1ccc(OC/C(=N/OC)c2ccc(CC)cn2)cc1)C(=O)O` [Compound 17]: 21 µM.
As for `CCOC(Cc1ccc(OC/C(=N/OC)c2ccc(CC)cn2)cc1)C(=O)O` (stereo not drawn) [Compound 18], in experiment [1], the IC50 is 62.2 µM.
In the case of `CCOC(Oc1ccc(OC[C@@H](O)c2ccc(CC)cn2)cc1)C(=O)O` (stereo partly drawn) [Compound 35], the IC50 in experiment [1] is 0.3 µM. Besides, the “Insulin (T/C)” value was 0.20@7.5 T/C in experiment [2] (@7.5), 0.44@15 T/C in experiment [2] (@15) and 0.11@30 T/C in experiment [2] (@30). In addition, the “Triglycerides (mean T/C)” value in experiment [2] (@7.5) is on record as 0.32@7.5 T/C; in experiment [2] (@15), 0.24@15 T/C; in experiment [2] (@30), 0.17@30 T/C.
For `CCOC(Oc1ccc(OC[C@H](O)c2ccc(CC)cn2)cc1)C(=O)O` (stereo partly drawn) [Compound 36], the IC50 in experiment [1] stood at 17.6 µM. The “Triglycerides (mean T/C)” value was 0.50@0.5 T/C in experiment [2] (@0.5), 0.41@7.5 T/C in experiment [2] (@7.5) and 0.38@30 T/C in experiment [2] (@30). In addition, the “Insulin (T/C)” value in experiment [2] (@7.5) is on record as 0.26@7.5 T/C; in experiment [2] (@15), 0.33@15 T/C; in experiment [2] (@30) it was 0.46@30 T/C.
On to `CCOC(Cc1ccc(OCC(=O)c2cccc(OC)c2)cc1)C(=O)O` (stereo not drawn) [Compound 47], for which the half-maximal inhibitory concentration (IC50) in experiment [1] stood at 6.07 µM. Also, in experiment [2] (no dose given), the “Insulin (T/C)” value turned out to be 0.26 T/C and the “Triglycerides (mean T/C)” value came out at 0.33 T/C.
`CCOC(Cc1ccc(OCC(=NO)c2cccc(OC)c2)cc1)C(=O)O` (stereo not drawn) [Compound 48]: the IC50 in experiment [1] was determined as 14.7 µM.
On the same count and under the same terms, the result for `CCOC(Cc1ccc(OC[C@@H](F)c2cccc(OC)c2)cc1)C(=O)O` (stereo partly drawn) [Compound 50] reads 157 µM.
On the same count and under the same terms, the same measure for `COc1cccc(C(=O)COc2ccc(C[C@@H](O)C(=O)O)cc2)c1` [Compound 53]: more than 263 µM; for `CCO[C@@H](Cc1ccc(OC[C@@H](NC(=O)OC(C)(C)C)c2ccccc2)cc1)C(=O)O` [Compound 55]: 18.9 µM; for `CCO[C@@H](Cc1ccc(OC[C@@H](NC(C)=O)c2ccccc2)cc1)C(=O)O` [Compound 56]: 33.7 µM.
Still for that read-out and setting: the same measure for `CCO[C@@H](Cc1ccc(OC[C@@H](N)c2ccccc2)cc1)C(=O)O` [Compound 57]: 39.7 µM; for `CCO[C@@H](Cc1ccc(OC[C@@H](NC=O)c2ccccc2)cc1)C(=O)O` [Compound 58]: 12.3 µM.
Take `CCO[C@@H](Cc1ccc(OC[C@H](NC=O)c2ccccc2)cc1)C(=O)O` [Compound 59]: in experiment [1], the IC50 was more than 250 µM.
With `CCO[C@@H](Cc1ccc(OC[C@H](NS(C)(=O)=O)c2ccccc2)cc1)C(=O)O` [Compound 60], in experiment [1], the half-inhibitory concentration (IC50) was 80.3 µM.
As for `CCOC(=O)[C@H](Cc1ccc(OC[C@@H](NC(=O)OC(C)(C)C)c2ccccc2)cc1)OCC` [Compound 61], the half-maximal inhibitory concentration (IC50) in experiment [1] was 14.1 µM.
For `CCOC(=O)[C@H](Cc1ccc(OC[C@@H](N)c2ccccc2)cc1)OCC` [Compound 62], the IC50 in experiment [1] is 84.8 µM.
Consider `CCc1ccc(C(=O)COc2ccc(CC3SC(=O)NC3=O)cc2)nc1` (stereo not drawn) [Compound A, 5-(4-(2-(5-ethylpyridin-2-yl)-2-oxoethoxy)benzyl)-1,3-thiazolidine-2,4-dione], for which, in experiment [3], the “PGC-1α mRNA (message)” value is “an increase in PGC-1α message was observed”. The “plaques having less than 100 micron size, share of all the plaques” value in experiment [4] (same in the control group) is “about 70%”. Moreover, the “size and number of thioflavin stained plaques in the hippocampus” value in experiment [4] (versus control chow) was “less than the control group”.
Turning to `CCc1ccc([C@@H](O)COc2ccc(CC3SC(=O)NC3=O)cc2)nc1` (stereo partly drawn) [Compound B], the “PGC-1α mRNA (message)” value in experiment [3] is “an increase in PGC-1α message was observed”.
In the case of `COc1cccc(C(=O)COc2ccc(CC3SC(=O)NC3=O)cc2)c1` (stereo not drawn) [Compound C, 5-(4-(2-(3-methoxyphenyl)-2-oxoethoxy)benzyl)-1,3-thiazolidine-2,4-dione], in experiment [3], the “PGC-1α mRNA (message)” value was “an increase in PGC-1α message was observed”.
